Patent publication US20120148685A1, “METHODS AND COMPOSITIONS FOR TREATING INSULIN RESISTANCE, DIABETES MELLITUS TYPE 2, METABOLIC SYNDROME AND RELATED DISORDERS” (Engergy4Life AG, priority 2009, published 2012)
Marks after values point to notes of the source that are not given here.

Columns and labels:
[1] = Feed intake, body weight development and feed conversion ratio of Zucker rats fed supplemented diets; type: in vivo
Text: Zucker rats are an established model of human early-onset, hyperplastic-hypertrophic obesity and insulin resistance as well as human non-insulin dependent diabetes mellitus.
(§1) A total of 60 male, 8-10 week old, obese (fa/fa) Zucker rats (Crl:ZUC-Leprfa; Charles River, France) with an initial body weight of 358±24 (mean±SD) g were randomly assigned to five groups of twelve rats each. In addition, 12 male, 8-10 week old, heterozygous lean (fa/+) Zucker rats with an initial body weight of 271±10 g were used as a lean control group. All rats were kept individually in Macrolon cages in a room maintained at 22±1° C. and 50-60% relative humidity with lighting from 06.00 to 18.00 hours. All experimental procedures described followed established guidelines for the care and handling of laboratory animals and were approved by the local Animal Care and Use Committee.
(§2) The rats were fed semi-purified diets which were composed according to the recommendations of the American Institute of Nutrition (AIN)-93G. Five different diets were used differing in their supplementation. […] Diets were prepared by mixing the dry components and subsequent pelleting with a standard pelleting device (Kahl Laborpressanlage Typ 14-175; Reinbek, Germany). Feed was administered ad libitum, and feed intake was recorded weekly. Experimental diets were fed for 4 weeks. Water was available ad libitum from nipple drinkers during the whole experiment.

[2] = Organ weights of the rats; type: in vivo; details: obese (fa/fa) Zucker rats, supplemented diet fed 4 wk, means ± SD (n = 12)
Description: All rats were kept individually in Macrolon cages in a room maintained at 22±1° C. and 50-60% relative humidity with lighting from 06.00 to 18.00 hours. All experimental procedures described followed established guidelines for the care and handling of laboratory animals and were approved by the local Animal Care and Use Committee.
Five different diets were used differing in their supplementation. […] Feed was administered ad libitum, and feed intake was recorded weekly. Experimental diets were fed for 4 weeks. Water was available ad libitum from nipple drinkers during the whole experiment.

[3] = Plasma and lipoprotein lipid concentrations (triacylglycerol, cholesterol; enzymatic kits); type: in vivo, Zucker rats
Description: as §1, §2
(§3) The rats were decapitated under CO2 anesthesia in the fasted state. Whole blood was collected into EDTA polyethylene tubes (Sarstedt, Nürnbrecht, Germany). Plasma was separated from whole blood by centrifugation (1,100×g; 10 min) at 4° C. Lipoproteins [VLDL, LDL and high-density lipoproteins (HDL)] were separated by step-wise ultracentrifugation (900,000×g, 1.5 h, 4° C.; Mikro-Ultrazentrifuge, Sorvall Products, Bad Homburg, Germany). All samples were stored at −20° C. pending analysis.
Triacylglycerol and cholesterol concentrations in plasma and lipoproteins were determined using enzymatic reagent kits from Biocon (Vöhl-Marienhagen, Germany).

[4] = Fasting glucose concentration in plasma; type: in vivo, Zucker rats
Description: as §1, §2, §3
Glucose concentration in plasma was determined by an enzymatic reagent kit from Analyticon Biotechnologies (Lichtenfels, Germany).

[5] = Non-esterified fatty acids (NEFA) in plasma; type: in vivo, Zucker rats
Description: as §1, §2, §3
NEFA concentrations in plasma were determined using the NEFA kit from Wako Chemicals (Neuss, Germany).

[6] = system: leptin; test: Leptin in plasma (rat ELISA); type: in vivo, Zucker rats
Description: as §1, §2, §3
(§4) Concentrations of leptin in plasma was determined by rat ELISA kits from BioVendor (Heidelberg, Germany). Concentration of high molecular weight adiponectin was determined by a rat ELISA kit from Shibayagi (Ishihara, Shibukawa, Gunma, Japan).

[7] = system: high molecular weight adiponectin; test: High molecular weight adiponectin in plasma (rat ELISA); type: in vivo; details: obese (fa/fa) Zucker rats, supplemented diet 4 wk, fasted, means ± SD (n = 12)
Description: as §1, §2, §3, §4

[8] = obese (fa/fa) Zucker rats, supplemented diet fed 4 wk, means ± SD (n = 12)
[9] = within the obese rats, in words, P<0.05 where different
[10] = obese (fa/fa) Zucker rats, supplemented diet 4 wk, fasted, means ± SD (n = 12)
[11] = within the obese rats, in words, P<0.05

## O=C(O)c1cccnc1 [niacin, pyridine-3-carboxylic acid, reference compound]
[1]; [8]
  Daily body weight gain: 4.95 ± 0.73 ^a g
  Feed intake: 26.2 ± 2.3 ^ab g/d
  Final body weight: 500 ± 43 ^a g
  Total body weight gain: 141 ± 19 ^a g
[1]; [9]
  Daily feed intake compared with the obese control group: did not differ
[2]
  Absolute organ weights: Kidney: 2.57 ± 0.49 g
[3]; conclusions, obese diabetic rats, in words
  Lowering of cholesterol in plasma and VLDL/LDL: significant effect on lowering
[3]; [10]
  Cholesterol, HDL: 4.54 ± 0.54 ^a mmol/L
  Cholesterol, Plasma: 6.91 ± 1.13 ^b mmol/L
  Cholesterol, VLDL + LDL: 2.70 ± 0.27 ^c mmol/L
  Triacylglycerols, Plasma: 3.17 ± 0.40 ^d mmol/L
  Triacylglycerols, VLDL + LDL: 2.08 ± 0.40 ^c mmol/L
[3]; [11]
  TAG concentration in plasma compared with the niacin+DHA+carnitine group: lower
  TAG concentrations in plasma compared with the control group: lower
[3]; [9]
  Cholesterol in the VLDL+LDL fraction compared with the obese control group: lower
  TAG concentration in the VLDL+LDL fraction compared with the obese control group: lower
[4]; [10]
  Glucose in plasma: 7.36 ± 0.64 ^b mmol/L
[4]; [9]
  Fasting glucose concentration compared with the obese control group: lower
[5]; [10]
  NEFA in plasma: 2.25 ± 0.46 ^b mmol/L
[5]; [11]
  NEFA concentrations in plasma compared with the obese control group: lower
[6]; [10]
  Leptin in plasma: 6.17 ± 0.71 ^b ng/mL
[6]; [9]
  Leptin concentrations in plasma compared with the obese control group: higher
[7]
  Adiponectin in plasma: 134 ± 21 ng/mL
